Holding throughout (experiment): In vitro cytotoxicity of camptothecin analogues (CellTiter-Glo)
Assay type in all cases: cell-based
(Cellular ATP, detected with luciferase, serves as a proxy for viable cell number.)

Assay [1] has as its system Calu-3 (lung cancer). The note with it: Homo sapiens, Calu-3, 96 h, read-out: pIC50 Calu-3 (converted). Here is the method:
(§1) Cytotoxicity of the camptothecin analogues was assessed in vitro as follows.
(§2) In vitro potency was assessed on multiple cancer cell lines: SK-BR-3 (breast cancer), SKOV-3 (ovarian cancer), Calu-3 (lung cancer), ZR-75-1 (breast cancer) and MDA-MB-468 (breast cancer). Serial dilutions of camptothecin analogues were prepared in RPMI 1640+10% FBS, and 20 μL of each dilution was added to 384-well plates. Cells cultured in log-phase growth were detached by brief incubation in 0.05% Trypsin and resuspended in respective culturing media at 20,000 cells/mL (with the exception of ZR-75 cells, which were resuspended at 10,000 cells/mL). 50 μL of cell suspension was then added to the plates containing test articles. Cells were incubated with test articles for 4 d at 37° C. (with the exception of ZR-75 cells, which were incubated for 5 d). Growth inhibition was assessed by CellTiter-Glo® (Promega Corporation, Madison, WI) and luminescence was measured on a plate reader. IC50 values were determined by GraphPad Prism (GraphPad Software, San Diego CA).

Assay [2] deals with MDA-MB-468 (breast cancer). The note with it: Homo sapiens, MDA-MB-468, 96 h, read-out: pIC50 MDA-MB-468 (converted). Here is the method:
as §1, §2

Assay [3] deals with SK-BR-3 (breast cancer). The note with it: Homo sapiens, SK-BR-3, 96 h, read-out: pIC50 SKBR-3 (converted). The protocol:
as §1, §2

Assay [4] concerns SKOV-3 (ovarian cancer). The conditions noted are these: Homo sapiens, SK-OV-3, 96 h, read-out: pIC50 SKOV-3 (converted). The protocol: as §1, §2
For assay [5], the system named is ZR-75-1 (breast cancer). The note with it: Homo sapiens, ZR-75-1, 120 h, read-out: pIC50 ZR-75 (converted). The protocol:
as §1, §2

Read-outs that look alike come from different tables or passages of the source.

Take `CC[C@@]1(O)C(=O)OCc2c1cc1n(c2=O)Cc2c-1nc1cc(F)c(C)cc1c2CN1CCN(C)CC1` [Compound 106, (S)-4-ethyl-8-fluoro-4-hydroxy-9-methyl-11-((4-methylpiperazin-1-yl)methyl)-1,12-dihydro-14H-pyrano[3′,4′:6,7]indolizino[1,2-b]quinoline-3,14(4H)-dione]: the IC50 in assay [1] (4 d incubation) was 4.57 nM; in assay [2] (4 d incubation) it was 9.33 nM; in assay [3] (4 d incubation) it was 3.39 nM; in assay [4] (4 d incubation), 7.41 nM; in assay [5] (5 d incubation), 3.8 nM.

As to `CC[C@@]1(O)C(=O)OCc2c1cc1n(c2=O)Cc2c-1nc1cc(F)c(C)cc1c2CN1CCN(c2ccc(N)cc2)CC1` [Compound 108, (S)-11-((4-(4-aminophenyl)piperazin-1-yl)methyl)-4-ethyl-8-fluoro-4-hydroxy-9-methyl-1,12-dihydro-14H-pyrano[3′,4′:6,7]indolizino[1,2-b]quinoline-3,14(4H)-dione], the IC50 is 40.7 nM in assay [1]; 47.9 nM in assay [2]; 29.5 nM in assay [3]; 55 nM in assay [4]; 18.6 nM in assay [5].

As for `CC[C@@]1(O)C(=O)OCc2c1cc1n(c2=O)Cc2c-1nc1cc(F)c(C)cc1c2CN1CCCCC1` [Compound 110, (S)-4-ethyl-8-fluoro-4-hydroxy-9-methyl-11-(piperidin-1-ylmethyl)-1,12-dihydro-14H-pyrano[3′,4′:6,7]indolizino[1,2-b]quinoline-3,14(4H)-dione], the IC50 in assay [1] (4 d incubation) is 0.813 nM; in assay [2] (4 d incubation) it was 1.55 nM; in assay [3] (4 d incubation) it was 1.32 nM; in assay [4] (4 d incubation) it was 0.933 nM; in assay [5] (5 d incubation), 0.851 nM.

Take `CC[C@@]1(O)C(=O)OCc2c1cc1n(c2=O)Cc2c-1nc1cc(F)c(C)cc1c2CN1CCN(C(=O)OC(C)(C)C)CC1` [Compound 111, tert-butyl (S)-4-((4-ethyl-8-fluoro-4-hydroxy-9-methyl-3,14-dioxo-3,4,12,14-tetrahydro-1H-pyrano[3′,4′:6,7]indolizino[1,2-b]quinolin-11-yl)methyl)piperazine-1-carboxylate]: the IC50 in assay [1] (4 d incubation) is 19.5 nM; in assay [2] (4 d incubation), 28.8 nM; in assay [3] (4 d incubation), 8.51 nM; in assay [4] (4 d incubation), 16.6 nM; in assay [5] (5 d incubation), 9.12 nM.

For the molecule `CC[C@@]1(O)C(=O)OCc2c1cc1n(c2=O)Cc2c-1nc1cc(F)c(C)cc1c2CN1CCNCC1` [Compound 112, (S)-4-ethyl-8-fluoro-4-hydroxy-9-methyl-11-(piperazin-1-ylmethyl)-1,12-dihydro-14H-pyrano[3′,4′:6,7]indolizino[1,2-b]quinoline-3,14(4H)-dione], the IC50 is 17.4 nM in assay [1] (4 d incubation); 13.5 nM in assay [2] (4 d incubation); 6.61 nM in assay [3] (4 d incubation); 20 nM in assay [4] (4 d incubation); 12 nM in assay [5] (5 d incubation).

As to `CC[C@@]1(O)C(=O)OCc2c1cc1n(c2=O)Cc2c-1nc1cc(F)c(C)cc1c2CN1CCO[C@@H](CO)C1` [Compound 113, (S)-4-ethyl-8-fluoro-4-hydroxy-11-(((R)-2-(hydroxymethyl)morpholino)methyl)-9-methyl-1,12-dihydro-14H-pyrano[3′,4′:6,7]indolizino[1,2-b]quinoline-3,14(4H)-dione], the IC50 in assay [1] was 3.02 nM; in assay [2], 3.39 nM; in assay [3] it was 1.95 nM; in assay [4], 4.27 nM; in assay [5], 2.19 nM.

For `CC[C@@]1(O)C(=O)OCc2c1cc1n(c2=O)Cc2c-1nc1cc(F)c(C)cc1c2CNS(C)(=O)=O` [Compound 122, (S)—N-((4-ethyl-8-fluoro-4-hydroxy-9-methyl-3,14-dioxo-3,4,12,14-tetrahydro-1H-pyrano[3′,4′:6,7]indolizino[1,2-b]quinolin-11-yl)methyl)methanesulfonamide], the IC50 in assay [1] is 3.72 nM; in assay [2], 1.1 nM; in assay [3], 1.12 nM; in assay [4], 9.12 nM; in assay [5] it was 1.29 nM.

With `CC[C@@]1(O)C(=O)OCc2c1cc1n(c2=O)Cc2c-1nc1cc(F)c(OC)cc1c2CNS(C)(=O)=O` [Compound 123, (S)—N-((4-ethyl-8-fluoro-4-hydroxy-9-methoxy-3,14-dioxo-3,4,12,14-tetrahydro-1H-pyrano[3′,4′:6,7]indolizino[1,2-b]quinolin-11-yl)methyl)methanesulfonamide], the IC50 was 3.72 nM in assay [1] (4 d incubation); 2 nM in assay [2] (4 d incubation); 1.91 nM in assay [3] (4 d incubation); 19.5 nM in assay [4] (4 d incubation); 2.45 nM in assay [5] (5 d incubation).

Take `CC[C@@]1(O)C(=O)OCc2c1cc1n(c2=O)Cc2c-1nc1cc(F)c(C)cc1c2CNS(=O)(=O)c1ccccc1` [Compound 125, (S)—N-((4-ethyl-8-fluoro-4-hydroxy-9-methyl-3,14-dioxo-3,4,12,14-tetrahydro-1H-pyrano[3′,4′:6,7]indolizino[1,2-b]quinolin-11-yl)methyl)benzenesulfonamide]: the IC50 in assay [1] was 2.82 nM; in assay [2], 3.8 nM; in assay [3], 1.32 nM; in assay [4] it was 7.08 nM; in assay [5], 1.32 nM.

With `CC[C@@]1(O)C(=O)OCc2c1cc1n(c2=O)Cc2c-1nc1cc(F)c(OC)cc1c2CNS(=O)(=O)c1ccccc1` [Compound 126, (S)—N-((4-ethyl-8-fluoro-4-hydroxy-9-methoxy-3,14-dioxo-3,4,12,14-tetrahydro-1H-pyrano[3′,4′:6,7]indolizino[1,2-b]quinolin-11-yl)methyl)benzenesulfonamide], the IC50 in assay [1] (4 d incubation) was 2.95 nM; in assay [2] (4 d incubation), 1.95 nM; in assay [3] (4 d incubation), 1.1 nM; in assay [4] (4 d incubation), 6.31 nM; in assay [5] (5 d incubation), 0.724 nM.

As for `CC[C@@]1(O)C(=O)OCc2c1cc1n(c2=O)Cc2c-1nc1cc(F)c(C)cc1c2CNS(=O)(=O)c1ccc(N)cc1` [Compound 127, (S)-4-amino-N-((4-ethyl-8-fluoro-4-hydroxy-9-methyl-3,14-dioxo-3,4,12,14-tetrahydro-1H-pyrano[3′,4′:6,7]indolizino[1,2-b]quinolin-11-yl)methyl)benzenesulfonamide], the IC50 in assay [1] is 9.33 nM; in assay [2], 3.8 nM; in assay [3] it was 3.31 nM; in assay [4], 14.5 nM; in assay [5], 5.25 nM.

`CC[C@@]1(O)C(=O)OCc2c1cc1n(c2=O)Cc2c-1nc1cc(F)c(C)cc1c2CNS(=O)(=O)CCO` [Compound 129, (S)—N-((4-ethyl-8-fluoro-4-hydroxy-9-methyl-3,14-dioxo-3,4,12,14-tetrahydro-1H-pyrano[3′,4′:6,7]indolizino[1,2-b]quinolin-11-yl)methyl)-2-hydroxyethane-1-sulfonamide]: the IC50 in assay [1] (4 d incubation) was 5.25 nM; in assay [2] (4 d incubation) it was 3.98 nM; in assay [3] (4 d incubation), 3.09 nM; in assay [4] (4 d incubation), 20.4 nM; in assay [5] (5 d incubation), 2.63 nM.

As to `CC[C@@]1(O)C(=O)OCc2c1cc1n(c2=O)Cc2c-1nc1cc(F)c(C)cc1c2CNC(=O)NC` [Compound 132, (S)-1-((4-ethyl-8-fluoro-4-hydroxy-9-methyl-3,14-dioxo-3,4,12,14-tetrahydro-1H-pyrano[3′,4′:6,7]indolizino[1,2-b]quinolin-11-yl)methyl)-3-methylurea], the IC50 in assay [1] (4 d incubation) was 51.3 nM; in assay [2] (4 d incubation), 26.9 nM; in assay [3] (4 d incubation) it was 22.9 nM; in assay [4] (4 d incubation), 105 nM; in assay [5] (5 d incubation), 15.5 nM.

In the case of `CC[C@@]1(O)C(=O)OCc2c1cc1n(c2=O)Cc2c-1nc1cc(F)c(OC)cc1c2CNC(=O)NC` [Compound 133, (S)-1-((4-ethyl-8-fluoro-4-hydroxy-9-methoxy-3,14-dioxo-3,4,12,14-tetrahydro-1H-pyrano[3′,4′:6,7]indolizino[1,2-b]quinolin-11-yl)methyl)-3-methylurea], the IC50 in assay [1] (4 d incubation) was 12 nM; in assay [2] (4 d incubation), 10.7 nM; in assay [3] (4 d incubation) it was 6.76 nM; in assay [4] (4 d incubation), 74.1 nM; in assay [5] (5 d incubation) it was 9.77 nM.

For `CC[C@@]1(O)C(=O)OCc2c1cc1n(c2=O)Cc2c-1nc1cc(F)c(C)cc1c2CNC(=O)NCc1ccc(N)cc1` [Compound 134, (S)-1-(4-aminobenzyl)-3-((4-ethyl-8-fluoro-4-hydroxy-9-methyl-3,14-dioxo-3,4,12,14-tetrahydro-1H-pyrano[3′,4′:6,7]indolizino[1,2-b]quinolin-11-yl)methyl)urea], the IC50 in assay [1] (4 d incubation) is 24.5 nM; in assay [2] (4 d incubation), 11.5 nM; in assay [3] (4 d incubation), 9.55 nM; in assay [4] (4 d incubation) it was 77.6 nM; in assay [5] (5 d incubation), 12 nM.

(Values after patent US12433952B2, “Antibody-drug conjugates targeting folate receptor alpha and methods of use” (ZYMEWORKS BC INC., priority 2022, dated 2025).)
